Source: patent US20260091012A1, “Methods Of Treating Meduloblastoma With Thyroid Hormone” (Institute For Cancer Research d/b/a The Research Institute …, priority 2022, published 2026)

Legend:
[1] = test system: MB ptch−/− cells; test: EdU incorporation, proliferation of MB ptch−/− cells; type: cell-based, mouse; conditions: NB-B22 cultured MB ptch−/− cells, different concentrations of T3, 48 hours; inhibition concentration dependent
Source text: (§1) MB cells were isolated from Math1-Cre/Ptch1^fl/fl, Math1-Cre/Ptch1^fl/fl/Cas9 and SmoM2 tumor-bearing mice at 6 to 8 weeks of age, respectively. Tumor tissue was dissociated in a papain solution to obtain a single-cell suspension and then centrifuged through a 35% and 65% Percoll gradient. Cells from the 35% to 65% interface were suspended in Dulbecco's PBS (DPBS) plus 0.5% BSA. Cells were then suspended in NB-B22 (B22 supplement followed protocol in Jacob Hanna's lab) and plated on poly-D-lysine (PDL)-coated coverslips (BD Biosciences). D283, D341 and MB-shh cell lines were cultured in DMEM with 10% fetal bovine serum, 1% Pen/Strep and 2 mM L-glutamine (Invitrogen).
(§2) GDC0449 (50 mg/kg) diluted using MCT and administrated to mice by oral gavage once a day. […] Log-rank survival analyses were performed in GraphPad Prism 9.
(§3) The EdU incubated cells were cultured at 1 μM in culture medium for 1 hour. 4% PFA was used to fix the cells for 10 minutes. The cells were incubated with the staining solution for 20 minutes in the dark. The cells were washed with PBST for 5 minutes/time for 3 times.
The inhibition was concentration dependent. The percentage of EdU+ cells in the culture were quantified (see, FIG. 1, Panel B). DAPI was used to counterstain cell nuclei.

[2] = test system: MB cells; test: Immunostaining of differentiation marker MAP2 in MB cells; type: cell-based, mouse; conditions: MB cells treated by T3 for 48 hours
Method: Immunofluorescent staining of cells was carried out according to standard methods. Briefly, cells were blocked and permeabilized for 1 hour with PBS containing 0.1% Triton X-100 and 10% normal goat serum, stained with primary antibodies (1:400) overnight at 4° C. and incubated with secondary antibodies (1:500) for 1 hour. Cells were counterstained with DAPI and mounted with Fluoromount-G (Southern Biotech) before being visualized using a Nikon Eclipse Ti microscope.

[3] = test system: Math1-Cre/Ptch1^fl/fl tumor mice; test: Survival and tumor markers in Math1-Cre/Ptch1fl/fl tumor mice; type: in vivo, mouse
Method: (§4) Math1-Cre mice, Ptch1^fl/fl mice, R26-SmoM2 mice, Math1-CreER mice, CAG-Cas9 mice and were purchased from the Jackson Laboratory. All mice were bred and genotyped as recommended by the Jackson Laboratory. CB17/SCID mice were bred in the Fox Chase Cancer Center Laboratory Animal Facility (LAF).
as §2

[4] = test system: Shh type PDX-luciferase cells; test: Human shh type MB PDX-luciferase growth in cerebellum of SCID mice (bioluminescence); type: in vivo; conditions: SCID mice treated by T3 for 3 weeks vs untreated controls
Method: as §2
(§5) MB cells were stereotaxically injected into the cerebellum of 6- to 8-week-old SCID mice. Before transplantation, MB cells were infected with lentivirus carrying firefly luciferase for 24 hours. For transplantation with MB cells after the virus infection, the cell suspension was centrifuged at 1000 rpm for 5 minutes to remove the supernatant. 1×10^6 cells (based on Trypan blue staining) were injected into the cerebellum of each mouse. Animals were monitored weekly using in vivo bioluminescence imaging.

[5] = test system: SmoM2 tumor mice; test: Survival and tumor markers in SmoM2 tumor mice; type: in vivo, mouse
Method: as §4, §2
Conversely, pHH3, a cell proliferation maker, was decreased in T3-treated mice tumor tissues (see, FIG. 5, Panel B).

[6] = test system: Group3 (Ms)MB cells; test: EdU incorporation, proliferation of MB group3 (Mouse) cells; type: cell-based; conditions: T3, 72 hours
Method: as §3
(§6) The percentage of EdU+ cells in the culture was quantified (see, FIG. 6, Panel A). […] The percentage of EdU+ cells in the culture was quantified (see, FIG. 6, Panel B). […] The percentage of EdU+ cells in the culture were quantified (see, FIG. 6, Panel C). […] Thus, thyroid hormone may be used to treat different type of medulloblastoma.

[7] = test system: D283; test: EdU incorporation, proliferation of human MB group3 cell line D283; type: cell-based; conditions: D283, T3, 72 hours
Source text: as §1, §3, §6

[8] = test system: D341; test: EdU incorporation, proliferation of human MB group3 cell line D341; type: cell-based; conditions: D341, T3, 72 hours
Source text: as §1, §3, §6

[9] = test system: MB cells isolated from Math1-Cre/Ptch1^fl/fl tumor mice; test: Cell Counting Kit-8 (CCK8) assay of MB cells, T3 and cisplatin; type: cell-based, mouse
Method: MB cells were treated with vehicle (DMSO) as a control. […] The survival of MB cells was measured by Cell Counting Kit-8 (CCK8) following the treatment.

[10] = test system: RCMB28 cells
Method: as §2, §5
G3-MB PDOXs were generated by intracranial transplantation of RCMB28 cells transduced with a luciferase expressing construct.

[11] = T3 200 ng/g i.p. twice a day vs without T3
[12] = T3-treated mice, immunohistochemistry

Which results are given for `N[C@@H](Cc1cc(I)c(Oc2ccc(O)c(I)c2)c(I)c1)C(=O)O` [T3, triiodothyronine]?
proliferation of medulloblastoma cells (percentage of EdU+ cells) [1]: significantly inhibited; MAP2 expression (differentiation marker) [2]: increased; mice survival [3, 11]: prolonged; tumor progression in vivo ([3]; T3-treated mice): repressed tumor progression; NeuN (differentiation marker) expression in tumor tissues [3, 12]: enhanced expression; pHH3 (cell proliferation marker) in tumor tissues [3, 12]: decreased; MB growth (in vivo bioluminescence) [4]: significantly inhibited; mice survival [5, 11]: prolonged; NeuN (differentiation marker) expression in tumor tissues [5, 12]: enhanced expression; pHH3 (cell proliferation marker) in tumor tissues [5, 12]: decreased; proliferation of group3 tumor cells (percentage of EdU+ cells) [6]: significantly inhibited; proliferation of group3 tumor cells (percentage of EdU+ cells) [7]: significantly inhibited; proliferation of group3 tumor cells (percentage of EdU+ cells) [8]: significantly inhibited; MB cell proliferation (CCK8) ([9]; T3 alone at two concentrations vs vehicle (DMSO)): decreased; survival of recipient mice ([10]; T3 i.p. compared with PBS treatment, p<0.01): significantly prolonged; tumor progression in recipient mice ([10]; T3 i.p. vs PBS, after tumors were established): significantly repressed; median survival ([10]; T3 i.p., PBS treatment 15 days, p<0.01): undefined

`N.N.[Cl][Pt][Cl]` [cisplatin] was tested. Which “cell proliferation / survival of MB cells (CCK8)” value ([9]; cisplatin alone at seven different concentrations vs vehicle (DMSO)) did it give?
Its value is “inhibited cell proliferation significantly except 31.23 nM and 62.5 nM”.
